≈ marks a conversion by molar mass, not a printed value. Like-named read-outs stand apart in the source and are kept apart here.
Assays:
[1] = Solubility test in water or organic solvent; assay type: physicochemical; settings: room temperature, visually observed; for Solubility in Ethyl acetate: 0.1 g sample in 1 ml ethyl acetate; for solubility: thermodynamic from solid
Description: 0.1 g of each sample was weighed and 1 ml of water or an organic solvent was accurately added thereto. After agitating the mixture with a test tube mixer (VORTEX), it was allowed to stand at room temperature and the state was visually observed. Solubility was evaluated as “o”, when a sample was completely dissolved. Solubility was evaluated as “Δ”, when a sample was approximately half dissolved. Solubility was evaluated as “x”, when a sample was almost not dissolved. Propylbiphenol that was a starting material for each Preparation Example was also evaluated as Comparative Example 1.

B16 melanoma cells = assay: Melanogenesis inhibition test; assay type: cell-based; settings: for IC50: Mus musculus; for Melanogenesis inhibition rate (%, vs control): 72 hours culture, melanin per protein
Description: B16 melanoma cells were plated at 10^4 cells/well in a MEM medium containing 10 vol % fetal bovine serum in a 12-well plate and were precultured for 24 hours. After the preculture, the medium was replaced with a medium obtained by adding a predetermined concentration of the sample compound to the above medium to which is added 2 mmol/L of theophylline, and culture was carried out for 72 hours. […] Further, the cells were dissolved in a 1 mol/L aqueous sodium hydroxide solution containing 10 vol % dimethyl sulfoxide. The OD475 was measured and the value was used as an indicator of the amount of melanin. Thereafter, the amount of total protein in the solution was determined using Coomasie Plus Protein Assay Reagent Kit (manufactured by PIERCE) to calculate the amount of melanin per amount of protein. The melanogenesis inhibition rate (%) relative to a control was determined with a case where the sample compound was not added as the control.
Melanogenesis inhibition curves of the monoacetyl and diacetyl derivatives of propylbiphenol of Preparation Example 1 according to the present invention were made based on the results of the melanogenesis inhibition test (FIGS. 6 and 7). IC50 values, which is the concentration values supposed to inhibit 50% of melanogenesis, were determined from the inhibition curves.

[2] = 0.1 g sample in 1 ml water, read-out: Solubility in Water
[3] = B16, determined from melanogenesis inhibition curves, read-out: IC50 value (concentration supposed to inhibit 50% of melanogenesis)
[4] = addition concentration 10 μg/ml

Row | Solubility in Ethyl acetate [1] | Solubility in Methanol ([1]; 0.1 g sample in 1 ml methanol) | Solubility in n-hexane ([1]; 0.1 g sample in 1 ml n-hexane) | solubility [1, 2] [mg/mL] | IC50 (B16 melanoma cells; [3]) [µg/mL] | SMILES | Melanogenesis inhibition rate (%, vs control) (B16 melanoma cells; addition concentration 1 μg/ml) [%] | Melanogenesis inhibition rate (%, vs control) (B16 melanoma cells; addition concentration 3 μg/ml) [%] | Melanogenesis inhibition rate (%, vs control) (B16 melanoma cells; [4]) [%] | Melanogenesis inhibition rate (%, vs control) (B16 melanoma cells; addition concentration 30 μg/ml) [%] | solubility ([1]; organic solvent or mixture, 0.1 g sample in 1 ml methanol, read-out: Solubility in Methanol) [mg/mL] | solubility ([1]; organic solvent or mixture, 0.1 g sample in 1 ml n-hexane, read-out: Solubility in n-hexane) [mg/mL] | IC50 (B16 melanoma cells; B16, read-out: IC50 value (concentration supposed to inhibit 50% of melanogenesis)) [µg/mL]
1 | ∘ | ∘ | ∘ | < 25 | 6.5 (≈ 0.0183 mM) | CCCc1ccc(OC(C)=O)c(-c2cc(CCC)ccc2OC(C)=O)c1 [Diacetyl derivative] | −15.5 | −16.6 | 72.0 | 83.8 |  |  | 
2 | ∘ | ∘ | ∘ | < 25 |  | CCCc1ccc(OC(=O)CC)c(-c2cc(CCC)ccc2OC(=O)CC)c1 [Dipropionyl derivative] |  |  |  |  |  |  | 
3 | ∘ | ∘ | ∘ | < 25 | 7 (≈ 0.0224 mM) | CCCc1ccc(O)c(-c2cc(CCC)ccc2OC(C)=O)c1 [Monoacetyl derivative] | −11.6 | −9.8 | 100 |  |  |  | 

Second part, the molecule before the results:

Row | SMILES | Solubility in Ethyl acetate [1] | Solubility in Methanol ([1]; 0.1 g sample in 1 ml methanol) | Solubility in n-hexane ([1]; 0.1 g sample in 1 ml n-hexane) | solubility [1, 2] [mg/mL] | IC50 (B16 melanoma cells; [3]) [µg/mL] | Melanogenesis inhibition rate (%, vs control) (B16 melanoma cells; addition concentration 1 μg/ml) [%] | Melanogenesis inhibition rate (%, vs control) (B16 melanoma cells; addition concentration 3 μg/ml) [%] | Melanogenesis inhibition rate (%, vs control) (B16 melanoma cells; [4]) [%] | Melanogenesis inhibition rate (%, vs control) (B16 melanoma cells; addition concentration 30 μg/ml) [%] | solubility ([1]; organic solvent or mixture, 0.1 g sample in 1 ml methanol, read-out: Solubility in Methanol) [mg/mL] | solubility ([1]; organic solvent or mixture, 0.1 g sample in 1 ml n-hexane, read-out: Solubility in n-hexane) [mg/mL] | IC50 (B16 melanoma cells; B16, read-out: IC50 value (concentration supposed to inhibit 50% of melanogenesis)) [µg/mL]
4 | CCCCCCCC(=O)Oc1ccc(CCC)cc1-c1cc(CCC)ccc1O [Monooctanoyl derivative] | ∘ | ∘ | ∘ | < 25 |  |  |  |  |  |  |  | 
5 | CCCc1ccc(O)c(-c2cc(CCC)ccc2O)c1 [Propylbiphenol, 2,2′-dihydroxy-5,5′-di-n-propyl-biphenyl, reference compound] | ∘ |  |  | < 25 |  |  |  |  |  | 25 to 100 (≈ 92.5 to 370 mM) | < 25 | 4 (≈ 0.0148 mM)
6 | OC[C@H]1O[C@@H](Oc2ccc(O)cc2)[C@H](O)[C@@H](O)[C@@H]1O [arbutin, reference compound] |  |  |  |  | 20 (≈ 0.0735 mM) |  |  |  |  |  |  | 

— patent US20090053152A1, “SKIN COSMETIC” (KAO Corporation, priority 2006, published 2009)
